Laboratory results published in patent US11420958B2, “Aryl and heteroaryl substituted indole compounds” (BRISTOL-MYERS SQUIBB COMPANY, priority 2017, dated 2022).
pIC50: −log10 of the molar value.

Legend:
Format in all cases: cell-based
[1] = target: human TLR7 (Homo sapiens (Human), UniProt Q9NYK1); assay: TLR7 inhibition reporter assay (HEK-Blue, SEAP); conditions: HEK-Blue cells overexpressing human TLR7, gardiquimod 7.5 μM stimulation
Outline: (§1)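 SEAP read-out via detection medium after 22 h at 37 °C, 5% CO2; percent inhibition relative to agonist-plus-DMSO and known-inhibitor wells. Agonists: TLR7 gardiquimod 7.5 μM, TLR8 R848 15.9 μM, TLR9 ODN2006 5 nM (final). Compound range 0.05 nM–50 μM, 30 min pre-treatment.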

[2] = target: human TLR8 (Homo sapiens (Human), UniProt Q9NR97); assay: TLR8 inhibition reporter assay (HEK-Blue, SEAP); conditions: HEK-Blue cells overexpressing human TLR8, R848 15.9 μM stimulation
Outline: as §1

[3] = target: human TLR9 (Homo sapiens (Human), UniProt Q9NR96); assay: TLR9 inhibition reporter assay (HEK-Blue, SEAP); conditions: HEK-Blue cells overexpressing human TLR9, ODN2006 5 nM stimulation
Outline: as §1

Chain of human TLR9 (Q9NR96 26-1032): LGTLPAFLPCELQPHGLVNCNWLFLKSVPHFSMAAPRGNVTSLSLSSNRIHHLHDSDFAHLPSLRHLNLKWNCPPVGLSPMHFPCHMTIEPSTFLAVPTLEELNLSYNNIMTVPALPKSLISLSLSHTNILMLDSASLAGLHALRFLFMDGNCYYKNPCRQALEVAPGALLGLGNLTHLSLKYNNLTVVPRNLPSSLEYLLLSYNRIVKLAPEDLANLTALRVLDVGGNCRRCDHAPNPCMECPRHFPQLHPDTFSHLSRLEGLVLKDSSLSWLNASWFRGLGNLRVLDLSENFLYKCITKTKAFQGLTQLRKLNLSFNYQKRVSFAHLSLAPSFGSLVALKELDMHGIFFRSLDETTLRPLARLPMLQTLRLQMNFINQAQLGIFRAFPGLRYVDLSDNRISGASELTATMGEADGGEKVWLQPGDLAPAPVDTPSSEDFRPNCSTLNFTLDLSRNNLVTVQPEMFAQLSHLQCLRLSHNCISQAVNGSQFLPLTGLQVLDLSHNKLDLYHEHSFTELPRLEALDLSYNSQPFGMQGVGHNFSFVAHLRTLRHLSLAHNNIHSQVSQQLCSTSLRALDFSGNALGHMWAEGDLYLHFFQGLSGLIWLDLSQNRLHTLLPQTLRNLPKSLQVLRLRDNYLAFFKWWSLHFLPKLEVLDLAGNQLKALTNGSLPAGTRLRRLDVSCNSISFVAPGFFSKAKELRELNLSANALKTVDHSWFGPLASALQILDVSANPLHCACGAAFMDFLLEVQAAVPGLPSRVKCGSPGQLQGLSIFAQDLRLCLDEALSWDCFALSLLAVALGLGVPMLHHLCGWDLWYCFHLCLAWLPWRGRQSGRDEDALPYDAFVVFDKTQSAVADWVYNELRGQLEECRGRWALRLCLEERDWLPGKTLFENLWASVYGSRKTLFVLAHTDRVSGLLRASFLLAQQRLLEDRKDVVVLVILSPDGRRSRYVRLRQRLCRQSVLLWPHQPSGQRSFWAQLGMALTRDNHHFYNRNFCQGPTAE
Chain of human TLR7 (Q9NYK1 27-1049): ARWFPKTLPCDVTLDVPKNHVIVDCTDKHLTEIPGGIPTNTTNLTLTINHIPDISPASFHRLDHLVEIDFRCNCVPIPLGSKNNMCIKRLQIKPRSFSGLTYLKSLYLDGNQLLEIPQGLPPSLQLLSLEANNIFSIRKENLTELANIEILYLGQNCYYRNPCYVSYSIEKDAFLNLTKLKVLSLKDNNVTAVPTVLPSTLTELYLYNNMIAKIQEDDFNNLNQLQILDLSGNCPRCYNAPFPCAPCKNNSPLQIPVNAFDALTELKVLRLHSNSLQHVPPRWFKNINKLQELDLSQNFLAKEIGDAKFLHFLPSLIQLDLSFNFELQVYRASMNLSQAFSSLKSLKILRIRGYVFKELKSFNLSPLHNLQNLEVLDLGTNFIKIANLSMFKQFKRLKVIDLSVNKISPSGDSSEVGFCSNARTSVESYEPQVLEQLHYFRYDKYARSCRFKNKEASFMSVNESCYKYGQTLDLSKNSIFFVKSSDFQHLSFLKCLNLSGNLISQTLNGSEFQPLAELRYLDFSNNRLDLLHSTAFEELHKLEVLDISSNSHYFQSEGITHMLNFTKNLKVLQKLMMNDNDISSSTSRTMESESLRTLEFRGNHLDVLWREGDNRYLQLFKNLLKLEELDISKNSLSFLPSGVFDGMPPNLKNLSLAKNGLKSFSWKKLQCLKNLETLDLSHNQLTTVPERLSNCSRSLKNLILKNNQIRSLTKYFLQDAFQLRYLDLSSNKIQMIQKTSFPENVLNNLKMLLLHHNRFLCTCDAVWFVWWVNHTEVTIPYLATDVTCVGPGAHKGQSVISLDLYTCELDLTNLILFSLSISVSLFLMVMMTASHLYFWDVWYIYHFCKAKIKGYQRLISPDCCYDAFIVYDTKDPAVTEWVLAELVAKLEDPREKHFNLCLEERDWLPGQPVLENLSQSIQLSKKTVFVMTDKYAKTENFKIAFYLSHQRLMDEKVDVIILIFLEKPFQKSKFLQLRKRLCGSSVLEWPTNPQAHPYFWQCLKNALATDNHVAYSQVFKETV
Chain of human TLR8 (Q9NR97 27-1041): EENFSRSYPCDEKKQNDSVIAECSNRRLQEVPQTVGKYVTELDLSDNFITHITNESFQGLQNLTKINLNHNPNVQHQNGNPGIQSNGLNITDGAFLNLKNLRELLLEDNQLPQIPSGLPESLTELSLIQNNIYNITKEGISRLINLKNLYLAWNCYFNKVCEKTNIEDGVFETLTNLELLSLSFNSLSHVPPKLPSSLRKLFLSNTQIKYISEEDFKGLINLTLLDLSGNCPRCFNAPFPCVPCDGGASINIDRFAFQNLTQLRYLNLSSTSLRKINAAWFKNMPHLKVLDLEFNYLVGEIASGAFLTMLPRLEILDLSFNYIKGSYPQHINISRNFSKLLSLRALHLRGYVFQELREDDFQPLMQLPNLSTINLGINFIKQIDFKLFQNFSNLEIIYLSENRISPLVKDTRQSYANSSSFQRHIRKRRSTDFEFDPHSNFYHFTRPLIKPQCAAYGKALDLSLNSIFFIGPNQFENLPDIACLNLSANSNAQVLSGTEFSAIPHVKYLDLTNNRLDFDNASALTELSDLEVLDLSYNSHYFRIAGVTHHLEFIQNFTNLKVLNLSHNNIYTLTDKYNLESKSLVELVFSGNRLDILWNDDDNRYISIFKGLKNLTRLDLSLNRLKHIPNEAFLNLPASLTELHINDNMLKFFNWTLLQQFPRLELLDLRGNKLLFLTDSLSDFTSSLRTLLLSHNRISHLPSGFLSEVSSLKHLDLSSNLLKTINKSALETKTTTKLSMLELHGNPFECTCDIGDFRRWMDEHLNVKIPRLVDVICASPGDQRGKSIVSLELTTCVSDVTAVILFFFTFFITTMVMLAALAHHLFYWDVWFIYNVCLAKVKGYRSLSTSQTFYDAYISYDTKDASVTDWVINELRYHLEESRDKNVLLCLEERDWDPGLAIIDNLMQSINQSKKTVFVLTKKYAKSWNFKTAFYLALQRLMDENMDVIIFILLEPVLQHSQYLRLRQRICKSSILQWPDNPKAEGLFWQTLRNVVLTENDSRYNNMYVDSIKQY

Row | Structure (SMILES) | pIC50 [1] | pIC50 [2] | pIC50 [3]
1 | COc1ccc(-c2[nH]c3ccc(-c4cnc(N5CCN(CC(C)C)CC5)cc4C)cc3c2C(C)C)cc1OC [Example 418, 2-(3,4-dimethoxyphenyl)-5-(6-(4-isobutylpiperazin-1-yl)-4-methylpyridin-3-yl)-3-isopropyl-1H-indole] | 6.06 | 7.39 | 5.45
2 | Cc1cc(-c2[nH]c3ccc(-c4nnc(C5CCN(C(C)C)CC5)[nH]4)cc3c2C(C)C)ccn1 [Example 187, 3-isopropyl-5-(5-(1-isopropylpiperidin-4-yl)-4H-1,2,4-triazol-3-yl)-2-(2-methylpyridin-4-yl)-1H-indole] | 7.15 | 8.17 | 5.39
3 | Cc1cc(-c2[nH]c3ccc(-c4nnc(C5CCCN(C(C)C)C5)o4)cc3c2C(C)C)ccn1 (stereo not drawn) [Example 292, 2-(3-isopropyl-2-(2-methylpyridin-4-yl)-1H-indol-5-yl)-5-(1-isopropylpiperidin-3-yl)-1,3,4-oxadiazole] | 7.36 | 8.60 | 6.26
4 | Cc1cc(-c2[nH]c3ccc(-c4nc(C(=O)NCCCN5CCCCC5)co4)cc3c2C(C)C)cc(C)n1 [Example 275, 2-(2-(2,6-dimethylpyridin-4-yl)-3-isopropyl-1H-indol-5-yl)-N-(3-(piperidin-1-yl)propyl)oxazole-4-carboxamide] | 7.74 | 7.92 | 6.22
5 | Cc1cc(-c2[nH]c3ccc(-c4nnc([C@@H]5CCC[C@@H]5N)o4)cc3c2C(C)C)ccn1 [Example 267, (1S,2R)-2-(5-(3-isopropyl-2-(2-methylpyridin-4-yl)-1H-indol-5-yl)-1,3,4-oxadiazol-2-yl)cyclopentan-1-amine] | 7.52 | 8.62 | 6.12
6 | COc1ccc(-c2[nH]c3ccc(-c4ccc(N5CCOCC5)nc4)cc3c2C(C)C)cc1OC [Example 416, 4-(5-(2-(3,4-dimethoxyphenyl)-3-isopropyl-1H-indol-5-yl)pyridin-2-yl)morpholine] | 5.64 | 7.15 | < 4.30
7 | Cc1cc(-c2[nH]c3ccc(-c4nnc(C5CCCN(C)C5)o4)cc3c2C(C)C)ccn1 (stereo not drawn) [Example 170, 2-(3-isopropyl-2-(2-methylpyridin-4-yl)-1H-indol-5-yl)-5-(1-methylpiperidin-3-yl)-1,3,4-oxadiazole] | 7.96 | 9.22 | 6.18
8 | Cc1cc(-c2[nH]c3ccc(-c4cccnc4)cc3c2C(C)C)cc(C)n1 [Example 304, 2-(2,6-dimethylpyridin-4-yl)-3-isopropyl-5-(pyridin-3-yl)-1H-indole] | 7.20 | 7.16 | 4.64
9 | COc1ccc(-c2[nH]c3ccc(-c4ccc(OC5CCN(C(C)C)CC5)cc4)cc3c2C(C)C)cc1OC [Example 389, 2-(3,4-dimethoxyphenyl)-3-isopropyl-5-(4-((1-isopropylpiperidin-4-yl)oxy)phenyl)-1H-indole] | 6.47 | 6.90 | 5.63
10 | CC(C)c1c(-c2ccnc3[nH]ncc23)[nH]c2ccc(-c3ccc4ncccc4c3)cc12 [Example 469, 6-(3-isopropyl-2-(1H-pyrazolo[3,4-b]pyridin-4-yl)-1H-indol-5-yl)quinoline] | 6.22 | 6.89 | < 4.30
11 | Cc1cc(-c2[nH]c3ccc(-c4nc(C(=O)NCCN5CCOCC5)co4)cc3c2C(C)C)cc(C)n1 [Example 281, 2-(2-(2,6-dimethylpyridin-4-yl)-3-isopropyl-1H-indol-5-yl)-N-(2-morpholinoethyl)oxazole-4-carboxamide] | 7.47 | 8.06 | 4.95
12 | Cc1cc(-c2[nH]c3ccc(-c4cc5c(s4)CN(C(=O)CS(C)(=O)=O)CC5)cc3c2C(C)C)cc(C)n1 [Example 353, 1-(2-(2-(2,6-dimethylpyridin-4-yl)-3-isopropyl-1H-indol-5-yl)-4,7-dihydrothieno[2,3-c]pyridin-6(5H)-yl)-2-(methylsulfonyl)ethan-1-one] | 7.28 | 7.41 | < 4.30
13 | Cc1cc(-c2[nH]c3ccc(-c4ccnc(-c5cn[nH]c5)c4)cc3c2C(C)C)ccn1 [Example 258, 5-(2-(1H-pyrazol-4-yl)pyridin-4-yl)-3-isopropyl-2-(2-methylpyridin-4-yl)-1H-indole] | 6.65 | 8.40 | 4.92
14 | Cc1cc(-c2[nH]c3ccc(-c4nc(C(=O)NCC5CCNC5)c(C)o4)cc3c2C(C)C)ccn1 (stereo not drawn) [Example 194, 2-(3-isopropyl-2-(2-methylpyridin-4-yl)-1H-indol-5-yl)-5-methyl-N-(pyrrolidin-3-ylmethyl)oxazole-4-carboxamide] | 6.95 | 7.07 | 4.93
15 | Cc1cc(-c2[nH]c3ccc(-c4nnc([C@@H]5CCCNC5)o4)cc3c2C(C)C)ccn1 [Example 80, (R)-2-(3-isopropyl-2-(2-methylpyridin-4-yl)-1H-indol-5-yl)-5-(piperidin-3-yl)-1,3,4-oxadiazole] | 7.72 | 8.92 | 6.23
16 | COc1ccc(-c2[nH]c3ccc(-c4nnc(C5CCN(C(=O)CN(C)C)CC5)[nH]4)cc3c2C(C)C)cc1OC [Example 131, 1-(4-(5-(2-(3,4-dimethoxyphenyl)-3-isopropyl-1H-indol-5-yl)-4H-1,2,4-triazol-3-yl)piperidin-1-yl)-2-(dimethylamino)ethan-1-one] | 7.54 | 7.43 | 5.19
17 | COc1ccc(-c2[nH]c3ccc(-c4nnc(Cc5c[nH]cn5)o4)cc3c2C(C)C)cc1OC [Example 45, 2-((1H-imidazol-4-yl)methyl)-5-(2-(3,4-dimethoxyphenyl)-3-isopropyl-1H-indol-5-yl)-1,3,4-oxadiazole] | 6.81 | 7.80 | < 4.30
18 | CCc1c(-c2ccc(OC)c(OC)c2)[nH]c2ccc(-c3noc(CCN(C)C)n3)cc12 [Example 454, 2-(3-(2-(3,4-dimethoxyphenyl)-3-ethyl-1H-indol-5-yl)-1,2,4-oxadiazol-5-yl)-N,N-dimethylethan-1-amine] | 6.51 | 7.72 | 4.95
19 | Cc1cc(-c2[nH]c3ccc(-c4nnc(C5CCCN(C(C)C)C5)o4)cc3c2C(C)C)ccn1 (stereo not drawn) [Example 312, 2-(3-isopropyl-2-(2-methylpyridin-4-yl)-1H-indol-5-yl)-5-(1-isopropylpiperidin-3-yl)-1,3,4-oxadiazole] | 7.44 | 8.62 | 6.20
20 | COc1ccc(-c2[nH]c3ccc(-c4nnc(C5CCN(Cc6ccccc6)CC5)[nH]4)cc3c2C(C)C)cc1OC [Example 106, 5-(5-(1-benzylpiperidin-4-yl)-4H-1,2,4-triazol-3-yl)-2-(3,4-dimethoxyphenyl)-3-isopropyl-1H-indole] | 6.86 | 7.35 | 5.77
21 | CCc1c(-c2ccc(OC)c(OC)c2)[nH]c2ccc(-c3nnc(C(N)=O)o3)cc12 [Example 41, 5-(2-(3,4-dimethoxyphenyl)-3-ethyl-1H-indol-5-yl)-1,3,4-oxadiazole-2-carboxamide] | 6.13 | 6.76 | < 4.30
22 | Cc1cc(-c2[nH]c3ccc(-c4nnc(CN5CCNCC5)o4)cc3c2C(C)C)ccn1 [Example 140, 2-(3-isopropyl-2-(2-methylpyridin-4-yl)-1H-indol-5-yl)-5-(piperazin-1-ylmethyl)-1,3,4-oxadiazole] | 7.17 | 8.28 | 6.33
